As a reminder, the inhibition is the change of the read-out against control, counted positive when it falls. The IC50 is the concentration that gives 50% inhibition. By Ki is commonly meant the dissociation constant of the complex between target and ligand, obtained from inhibition or displacement. A low value points to higher affinity.

Assay [1] concerns the target T1, Protein arginine N-methyltransferase 1 (Homo sapiens, UniProt Q99873). Briefly: Inhibition of PRMT1 (unknown origin) using biotinylated histone H4-derived peptide as substrate at 50 uM after 60 mins by AlphaLISA assay. A general note: In Alpha technology, singlet oxygen from a donor bead excites a nearby acceptor bead.
Target sequence in this assay (Q99873 whole entry, looked up): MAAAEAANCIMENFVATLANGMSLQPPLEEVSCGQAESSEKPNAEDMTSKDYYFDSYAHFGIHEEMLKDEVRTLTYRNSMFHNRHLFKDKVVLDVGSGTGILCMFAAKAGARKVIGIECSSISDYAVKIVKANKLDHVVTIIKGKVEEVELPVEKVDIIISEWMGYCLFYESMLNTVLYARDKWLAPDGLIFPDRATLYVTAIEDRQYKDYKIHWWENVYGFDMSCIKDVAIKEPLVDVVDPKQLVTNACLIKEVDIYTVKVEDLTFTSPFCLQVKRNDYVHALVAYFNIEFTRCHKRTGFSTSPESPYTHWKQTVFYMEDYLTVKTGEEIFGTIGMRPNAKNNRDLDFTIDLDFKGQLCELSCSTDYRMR
The test system of a further assay is A-375. The assay can be described thus: Cytotoxicity against human A375 cells by MTT assay. It counts as functional, cell-based. (Formazan colour is commonly taken as a measure of viable cells.)
Assay [2] can be described thus: Cytotoxicity against human UM-UC-3 cells by MTT assay. It counts as functional, cell-based. As to conditions: UMUC3.
Assay [3] is described as follows: Cytotoxicity against human DLD1 cells by MTT assay. It counts as functional, cell-based. The settings on record: DLD-1.
The next assay has as its system SH-SY5Y. Briefly: Cytotoxicity against human SH-SY5Y cells by MTT assay. It counts as functional, cell-based.
A further assay has as its system MCF7. Briefly: Cytotoxicity against human MCF7 cells by MTT assay. It counts as functional, cell-based.
Assay [4] is described as follows: Cytotoxicity against human T24 cells by MTT assay. It counts as functional, cell-based. As to conditions: T-24.
Assay [5] addresses T1, Protein arginine N-methyltransferase 1. The assay can be described thus: Inhibition of PRMT1 in human DLD1 cells assessed as reduction of asymmetric dimethylation of histone H4R3 level at 3 uM by Western blotting. It counts as cell-based. The settings on record: DLD-1. Background: A western blot detects proteins with antibodies after separation by electrophoresis.
Target sequence in this assay (Q99873 whole entry, looked up): as above
Assay [6] concerns the target Protein arginine N-methyltransferase 5 (Homo sapiens, UniProt O14744). The assay can be described thus: Inhibition of PRMT5 (unknown origin) using biotinylated histone H4-derived peptide as substrate after 60 mins by AlphaLISA assay.
Assay [7] deals with T2, Histone-arginine methyltransferase CARM1 (Homo sapiens, UniProt Q86X55).
T2 sequence (Q86X55 whole entry): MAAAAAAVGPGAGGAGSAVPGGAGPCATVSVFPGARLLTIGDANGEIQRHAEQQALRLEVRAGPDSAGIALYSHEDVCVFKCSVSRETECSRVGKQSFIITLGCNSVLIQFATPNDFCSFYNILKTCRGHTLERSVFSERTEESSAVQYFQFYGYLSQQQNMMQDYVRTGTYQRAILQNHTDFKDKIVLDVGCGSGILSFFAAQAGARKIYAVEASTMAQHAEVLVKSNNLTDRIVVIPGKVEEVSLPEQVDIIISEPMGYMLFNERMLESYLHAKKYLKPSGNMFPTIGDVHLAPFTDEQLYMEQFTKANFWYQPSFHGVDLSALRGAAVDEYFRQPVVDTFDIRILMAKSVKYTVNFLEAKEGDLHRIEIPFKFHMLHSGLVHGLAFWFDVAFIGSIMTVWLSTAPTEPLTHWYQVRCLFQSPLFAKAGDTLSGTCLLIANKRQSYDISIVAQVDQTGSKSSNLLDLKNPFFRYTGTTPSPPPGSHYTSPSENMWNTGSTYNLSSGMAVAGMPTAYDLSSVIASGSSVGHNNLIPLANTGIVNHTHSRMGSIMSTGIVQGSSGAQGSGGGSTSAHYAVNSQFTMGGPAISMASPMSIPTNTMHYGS
The assay can be described thus: Inhibition of PRMT4 (unknown origin) using biotinylated histone H4-derived peptide as substrate after 60 mins by AlphaLISA assay.

Assay [8] addresses T1, Protein arginine N-methyltransferase 1. The assay can be described thus: Non-competitive inhibition of PRMT1 (unknown origin) using biotinylated histone H4-derived peptide as substrate by Michaelis-Menten kinetic equation analysis.
Target sequence in this assay (Q99873 whole entry): as the sequence (Q99873 whole entry, looked up) above
For assay [9] the target is unchanged. Briefly: Inhibition of PRMT1 in human DLD1 cells assessed as effect on symmetric dimethylation of histone H3R8 level at 1 to 30 uM by Western blotting. It counts as cell-based. As to conditions: DLD-1.
Target sequence in this assay (Q99873 whole entry, looked up): as the sequence (Q99873 whole entry, looked up) above
Assay [10] has the same target. The assay can be described thus: Inhibition of PRMT1 (unknown origin) using biotinylated histone H4-derived peptide as substrate after 60 mins by AlphaLISA assay.
Target sequence in this assay (Q99873 whole entry): as the sequence (Q99873 whole entry, looked up) above
In assay [11] the target is Protein arginine N-methyltransferase 6 (Homo sapiens, UniProt Q96LA8). The assay can be described thus: Inhibition of PRMT6 (unknown origin) using biotinylated histone H4-derived peptide as substrate after 60 mins by AlphaLISA assay.

Structures are written as SMILES. Calls of active or inactive are those of the source. The calls are words filed in the database; no cut-off is given here.

Protein arginine N-methyltransferase 5, sequence (O14744 whole entry): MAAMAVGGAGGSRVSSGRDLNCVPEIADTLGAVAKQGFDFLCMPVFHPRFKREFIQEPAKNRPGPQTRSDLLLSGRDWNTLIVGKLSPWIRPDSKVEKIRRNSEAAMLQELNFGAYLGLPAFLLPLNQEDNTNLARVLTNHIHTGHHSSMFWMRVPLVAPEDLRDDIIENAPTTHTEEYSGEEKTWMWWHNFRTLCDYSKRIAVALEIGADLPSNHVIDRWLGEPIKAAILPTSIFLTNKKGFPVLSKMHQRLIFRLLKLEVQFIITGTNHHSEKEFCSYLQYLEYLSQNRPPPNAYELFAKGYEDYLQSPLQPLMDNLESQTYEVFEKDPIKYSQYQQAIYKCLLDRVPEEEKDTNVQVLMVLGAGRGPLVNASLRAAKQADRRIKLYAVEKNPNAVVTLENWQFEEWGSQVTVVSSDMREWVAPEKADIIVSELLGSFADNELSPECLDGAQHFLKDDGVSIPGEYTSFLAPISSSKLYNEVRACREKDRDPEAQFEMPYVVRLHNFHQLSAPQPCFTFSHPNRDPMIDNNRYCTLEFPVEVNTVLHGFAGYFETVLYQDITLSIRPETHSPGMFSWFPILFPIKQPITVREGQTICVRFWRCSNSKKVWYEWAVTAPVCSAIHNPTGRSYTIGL
Protein arginine N-methyltransferase 6, sequence (Q96LA8 whole entry): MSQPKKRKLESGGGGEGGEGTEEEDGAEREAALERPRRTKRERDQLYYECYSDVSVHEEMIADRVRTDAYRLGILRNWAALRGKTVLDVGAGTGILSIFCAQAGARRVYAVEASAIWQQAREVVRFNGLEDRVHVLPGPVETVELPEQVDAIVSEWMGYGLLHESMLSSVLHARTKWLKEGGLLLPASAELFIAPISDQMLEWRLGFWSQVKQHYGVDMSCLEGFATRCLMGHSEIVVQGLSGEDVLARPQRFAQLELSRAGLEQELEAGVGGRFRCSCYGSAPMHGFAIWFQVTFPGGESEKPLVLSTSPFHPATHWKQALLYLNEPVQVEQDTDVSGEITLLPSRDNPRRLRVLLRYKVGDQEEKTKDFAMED

`N=C(N)c1ccc(Nc2ncnc(Nc3ccccc3)c2[N+](=O)[O-])cc1` displayed an inhibition in [1] of 9%.

For the compound `O=C(Nc1ccc2c(O)cc(S(=O)(=O)O)cc2c1)Nc1ccc2c(O)cc(S(=O)(=O)O)cc2c1`, the IC50 (with A-375; in assay [2]; in assay [3]; with SH-SY5Y; in the assay on MCF7; in [4]) was above 100 µM throughout.

In turn, `N=C(N)c1ccc(Nc2ncnc(Nc3ccc(N)cc3)c2[N+](=O)[O-])cc1` registered an inhibition in assay [1] of 28%.

Compound `N=C(N)c1ccc(Nc2ncnc(NCC(N)=O)c2[N+](=O)[O-])cc1` registered an inhibition in [1] of 49%.

As to `N#Cc1ccc(Nc2ncnc(Nc3ccc(C(=N)N)cc3)c2[N+](=O)[O-])cc1`, the inhibition entry in assay [5] is “Active”. Moreover, the IC50 was above 100 µM in assay [6]; above 100 µM with A-375; 45.4 µM in assay [2]; 4.4 µM in assay [3]; 10 µM in [7]; 11.4 µM in the assay on SH-SY5Y. Further, the IC50 in assay [10] was 2 µM; in the assay on MCF7, 50.6 µM; in assay [4], 13.1 µM; in assay [11] it was above 100 µM. The Ki in assay [8] is 1.7 µM. The inhibition result in [9] was “inactive”.

With `N=C(N)c1ccc(Nc2ncnc(Nc3ccc(S(N)(=O)=O)cc3)c2[N+](=O)[O-])cc1`, the inhibition in [1] was 28%. Besides, the IC50 with A-375 is above 100 µM; in assay [2], 84.6 µM; in assay [3] it was 8.5 µM; in the assay on SH-SY5Y, 92.4 µM; in the assay on MCF7 it was above 100 µM; in assay [4], 86.8 µM.

As to `COc1cc(Nc2ncnc(Nc3ccc(C(=N)N)cc3)c2[N+](=O)[O-])cc(OC)c1OC`, the inhibition in assay [1] was 44%. Also, the IC50 in the assay on A-375 turned out to be 87.6 µM; in assay [2] it was 65.4 µM; in [3], 83.8 µM; with SH-SY5Y, 16.2 µM; in the assay on MCF7 it was 58.7 µM; in [4] it was 18.3 µM.

In the case of `N=C(N)c1ccc(Nc2ncnc(Nc3ccc(C(N)=O)cc3)c2[N+](=O)[O-])cc1`, the IC50 in assay [10] is 9.3 µM.

The values above are taken from ChEMBL document CHEMBL3632463, “Discovery and structure-activity analysis of 4-((5-nitropyrimidin-4-yl)amino)benzimidamide derivatives as novel protein arginine methyltransferase 1 (PRMT1) inhibitors” (Bioorg Med Chem Lett, 2015).
